A short description of data set [1]: Phase 1 clinical safety and tolerability in healthy volunteers. Format: in vivo, human. To be noted: Phase 1, healthy volunteers, SC; interim data analysis. The source says:
(§1) The primary objective of this study is to evaluate the safety and tolerability of single and multiple ascending doses of SBT-272 administered via subcutaneous injection in healthy volunteers. The secondary objects of this study are to: (a) evaluate the plasma PK of SBT-272 in healthy volunteers following subcutaneous administration of single and multiple ascending doses; and (b) to determine an appropriate dose range for subsequence clinical evaluation.

Data set [2] can be described thus: Phase 1 clinical plasma PK in healthy volunteers. Format: in vivo, human.
Description: as §1

The test system of data set [3] is models of neurodegeneration. Nature of the data set: In vivo effect brain concentration (in vitro-in vivo correlation). The source says: See Guatam M., Platform presentation. NEALS, 2022. […] See Keefe, et al. (2019); Gautam, et al. (2022); Guatam, et al. (2021). Gautam, et al., SBT-272 improved mitochondria structure and function and preserved upper motor neurons with TDP-43 pathology, Platform poster presentation, presented at NEALS poster session (2022); Bido, et al. (2021); Silva, et al. (2022); and Zariwala, et al., Effects of the mitochondria-targeting small molecule SBT-272 in the R6/2 transgenic mice of Huntington's Disease, Poster presented at Keystone Symposia poster Session, 2022.

The nature of data set [4]: Steady state PK in plasma, CSF, brain cortex after 10 daily s.c. doses in nonhuman primates. It counts as in vivo, cynomolgus monkey. How it is done:
(§2) Pharmacokinetic profile of SBT-272 in nonhuman primate plasma, CSF, and brain. The objective of this study was to determine the pharmacokinetic profile of SBT-272 in CSF and plasma when delivered by subcutaneous (SC) injection for 10 days to cynomolgus monkeys. SBT-272 solution was administered daily by SC injection for 10 days. The following parameters and endpoints were evaluated in this study: mortality, clinical observations, body weights, pharmacokinetic samples (CSF and plasma), and selected tissue collection. There was no mortality during the study. […] Additional details regarding the experimental protocol are provided below.
Test System. Details Regarding the Test System are Provided Below: • Species: Nonhuman primate • Strain/Breed: Cynomolgus monkey • Animal Condition: Non-naïve • Animal Procurement Method: In-house colony • Animal Supplier: Charles River Laboratories • Animal Supplier Location: 531 Boul des Prairies, Laval, QC H7V 1B7, Canada • Animal Origin: Asia • Number of Males: 3 • Age at the Initiation of Dosing: 18 to 60 months • Weight at the Initiation of Dosing: 1.4 to 5.0 kg
Study design. The study design is described in Table 9.
• Route of Administration: Subcutaneous injection into the scapular and mid-dorsal areas • Treatment Frequency: Daily • Treatment Duration: 10 days • Method: The first day of dosing is designated as Day 1. Dose formulations are allowed to warm up at ambient temperature for at least 30 minutes prior to dosing, as appropriate. The animals are temporarily restrained for dose administration and are not be sedated. The volume for each dose is administered over 1 (preferred) or 2 (as necessary) separate injections within the designated area. Injection sites are rotated daily (see FIG. 4B). If a designated subcutaneous test site is not available for a given animal on any day, then the next available test site in the rotation should be used for dosing. The injection area is marked as frequently as required to allow appropriate visualization of administration sites. Hair may be clipped or shaved if required to improve visualization of the injection sites. On the last injection occasion for each quadrant, the last site of injection is circled, and the circled site is collected at necropsy.
CSF Sample Processing. CSF samples re processed and stored within 1 hour of collection. Following each CSF collection, the sample is visually inspected, and the appearance is recorded. Samples are maintained on wet ice prior to and after centrifugation. Samples are centrifuged for 5 minutes in a refrigerated centrifuge (set to maintain 4 °C) at 2000 g RCF within 1 hour of collection. The resultant supernatant is collected within 30 minutes (as quickly as possible) of centrifugation and will be visually inspected; the appearance of the supernatant and any traces of blood in the pellet re recorded. Precipitate (if any) is discarded. CSF samples are separated into 2 approximately 100 μL equal aliquots into uniquely labelled low protein binding polypropylene tubes each containing 10 μL of 5% (v/v) phosphoric acid aqueous solution. Any remaining CSF will be transferred into a 3rd low protein binding polypropylene tube containing a volume of 5% (v/v) phosphoric acid solution adjusted to result in a 1:10 ratio of acid solution: CSF. All samples are placed on dry ice and transferred to a freezer set to maintain −70 °C.
Plasma Sample Processing. […]

Data set [5] in a line: Time-concentration profile in plasma, CSF and brain, rat versus nonhuman primate. To be noted: FIGS. 4A and 4C; equivalent dose levels, single or repeated SC dosing. It counts as in vivo. How it is done:
Pharmacokinetic profile of SBT-272 in rat plasma, CSF, and brain (for FIG. 4A). Briefly, as described elsewhere herein, male Sprague-Dawley (SD) rats were subcutaneously administered a single, 10 mg/kg dose of SBT-272. Plasma, CSF, and brain (microdialysis) samples were obtained at the time points indicated on FIG. 4A and analyzed for SBT-272 concentration by HPLC with tandem mass spectrometry (HPLC-MS/MS).
as §2

The nature of data set [6]: SBT-272 level in brain homogenates after ET-1 injection. Format: in vivo. To be noted: rat hemibrain, 24 hours after final treatment. The source says:
FIG. 2B is a schematic showing the experimental design. Dotted lines indicate left and right subsection of hemibrain used for RCR and PK analysis (FIG. 2B). FIG. 2C: individual respiratory control ratios (RCR) per animal (n=8 per group) from the stroke-induced subsection of the right hemisphere. FIG. 2D: SBT-272 level in the brain homogenates from the same hemisphere after ET-1 injection. ET1=endothelin-1, vasoconstrictive peptide (*P<0.05, Kruskal-Wallis followed by Dunn's test).
Improved respiratory control ratio after cerebral ischemia reperfusion. To assess its pharmacodynamic effect on mitochondrial function in the brain, SBT-272 was tested in a rat model of acute ischemia. The mitochondrial effects of SBT-272 were determined using the respiratory control ratio (RCR), the ratio of coupled respiration (supporting oxidative phosphorylation) to respiratory rate in the absence of ADP (“leak” respiration). The high mitochondrial RCR in sham-treated animals (9.0±0.1) confirmed that the mitochondrial were healthy, as the majority of respiration accounted for replenishing cellular ATP levels (FIG. 2C).

These results are taken from US20260373226A1, “METHODS AND COMPOSITIONS FOR THE TREATMENT OF NEURODEGENERATIVE DISEASE” (Stealth BioTherapeutics Inc., priority 2022, published 2026).

Structures are written as SMILES. “Also recorded” adds a separate entry of the source.

Turning to `Cc1cc(O)cc(C)c1C[C@H](NC(=O)[C@H](N)CCCNC(=N)N)C(=O)N[C@@H](CCCCN)c1nc(Cc2ccccc2)no1` [SBT-272, (R)-2-amino-N—((S)-1-(((S)-5-amino-1-(3-benzyl-1,2,4-oxadiazol-5-yl)pentyl)amino)-3-(4-hydroxy-2,6-dimethylphenyl)-1-oxopropan-2-yl)-5-guanidinopentanamide], the safety profile entry in data set [1] was “consistent safety profile; also recorded: generally safe”. Moreover, the “clinical PK versus expectations based on rat and nonhuman primate profiles” value in data set [2] (Phase 1, healthy volunteers, SC) is “consistent with expectations based on rat and nonhuman primate profiles”. Moreover, the “clinical PK profile versus non-clinical allometric scaling predictions” value in data set [2] (healthy subjects, FIG. 7, 40 mg once daily, interim) is on record as “consistent with non-clinical allometric scaling predictions”. Besides, the “optimal in vivo effects, concentration” value in data set [3] (FIG. 3B) is 10 to 100 nM. Moreover, the “brain concentration as a potential target for pharmacodynamic effect” value in data set [3] (from in vitro and in vivo correlations) is reported as 10 to 100 nM. Moreover, the “plasma:CSF ratio” value in data set [4] (cynomolgus monkey, 5 mg/kg s.c., 10 daily doses) came out at 6.40. Also, in data set [4] (cynomolgus monkey, brain (cortex), 5 mg/kg s.c., 10 daily doses), the “brain:CSF ratio” value was found to be 328. Also, the Kp in data set [4] (in vivo, sc, cynomolgus monkey, brain (cortex), 5 mg/kg s.c., 10 daily doses, read-out: brain:plasma ratio) turned out to be 51. The “brain drug concentration versus predictions based on rodent studies” value in data set [4] (nonhuman primate, FIGS. 5A-5B) is given as “met predictions based on rodent studies”. In data set [4] (rat and nonhuman primate, repeated SC dosing), the “correlation between species in steady state brain concentration at trough” value is “excellent correlation between species in steady state brain concentration at trough”. In addition, the “time-concentration profile in plasma, CSF, and brain, rat versus nonhuman primate” value in data set [5] was “very similar in rat and nonhuman primate”. Besides, the “brain concentration, dose relation” value in data set [6] is recorded as “dose proportional”.
